Consider five substances from US20180339010A1, “USE OF SHORT SYNTHETIC PEPTIDE FOR THE TREATMENT AND/OR PROPHYLAXIS OF DRY EYE DISEASE” (priority 2015, published 2018).

What all share (assay type): in vivo, C57BL/6 mice
The subject of assay [1] is desiccating stressed-mice. Briefly: Tear production (phenol red thread), prophylactic treatment in desiccating stress-induced dry eye model. Particulars: peptide 100 μM topically three times daily for 14 days in CEC; vehicle control 3.7±0.25. The method, then: (§1) C57BL/6 mice (7-8 weeks old, each weighted about 18 to 25 g) were used in the present study. All mice were maintained in the animal facility in accordance with the procedures approved by Mackay Memorial Hospital Review Board (Taiwan, R.O. C.). All animal experimental procedures were conducted according to the ARVO Statement for the Use of Animals in Ophthalmic and Vision Research.
(§2) Dry eyes were induced by placing mice in a controlled environment chamber (CEC) in accordance with procedures previously described by Barabino et al (IVOS (2005) 46(8), 2766-2771). Mice placed in the CEC were exposed to a relative humidity (RH)<25%, temperature of 20 to 22° C., and airflow of 15 L/min, 12 hours per day. Control mice were kept in a normal environment (RH >50%, no air flow, temperature of 21-23° C.) for the same duration.
Tear production was measured by phenol red-impregnated cotton threads (Zone-Quick; Oasis, Glendora, Calif.). The validity of this test in mice was performed in accordance with procedures previously described by Dursun et al. (IVOS (2002) 43, 632-638). The threads were held with jeweler forceps and placed in the lateral canthus for 60 seconds. The tear production expressed in millimeters of thread wet by the tear and turned red.
(§3) Dry eye was created in mice using a controlled environmental chamber (CEC) in accordance with procedures described in the “material and method” section. Treatment was started on the first day when the mice were housed in CEC, in which the present synthetic peptide (i.e., 7-mer, 100 μM), peptide vehicle (1% CMC), or peptides derived from 7-mer (i.e., 7-mer-ΔD, 7-mer-ΔS, 7-mer (V→L) and 7-mer (VR→QK), 100 μM) were topically administered to eyes three times daily for 14 days. The peptides 7-mer-ΔD (LYRVRS, SEQ ID NO: 6) and 7-mer-ΔS (DLYRVR, SEQ ID NO: 7) represented peptides with one amino acid residue respectively deleted from 5-end (D; Aspartic acid) and 3′-end (S; Serine) of 7-mer, and were used as negative control peptides. In addition, the effects of single and double amino-acid substitution at 7-mer that generate 7-mer (V→L) and 7-mer (VR→QK) were also used to treat dry eye.
The protective effects of 7-mer and its derivatives on DED were also evaluated by measuring tears produced by the test animals, and results are depicted in FIG. 2.

Assay [2] deals with desiccating stressed-mice. Description: Corneal fluorescein staining, prophylactic treatment in desiccating stress-induced dry eye (CEC) model. The following applies: for biological function towards DED (summary statement): deletion peptides of SEQ ID NO: 2; for corneal fluorescein staining (score), FIG. 1B: peptide 100 μM topically to eyes three times daily for 14 days, started first day in CEC, 1% CMC vehicle 3.8±0.31. The method, then: as §1, §2
Animals were anesthetized by an intraperitoneal injection of a mixture of zoletil (6 mg/kg) and xylazine (3 mg/kg). Corneal epithelial injury was determined by staining with topical fluorescein (Fluor-I-Strip, Ayerst Laboratories, Philadelphia, Pa.). Corneal fluorescein staining was examined with a slit-lamp biomicroscope under cobalt blue light and photographed with a digital camera. Data is presented as mean±SD. The number of fluorescein staining dots were graded in the 1-mm central cornea zone of each eye, on a standardized five-point scale (0 dot, grade 0; 1-5 dots, grade 1; 6-15 dots, grade 2; 16-30 dots, grade 3; 30 dots, grade 4). One point was added to the score if there was one area of confluent staining, and two points were added for two or more areas of confluence. (Li J et al., Mole Visions 2012, 18, 317)
as §3
Fluorescein staining was used to assess changes in corneal epithelial integrity, and results are illustrated in FIGS. 1A and 1B. FIG. 1A are photographs taken on dry eyes respectively treated with the 1% CMC vehicle, 7-mer and its derivates; and FIG. 1B gives the quantitative analysis of FIG. 1A.

Assay [3] deals with desiccating stressed-mice. Description: Corneal epithelial histopathology (H&E), detached superficial apical cells, therapeutic treatment. The following applies: 14 days in CEC, then eye drops for 7 days, peptides 100 μM; for detached superficial apical cells on H&E stained cornea sections, observation in words, FIG. 4A: 0.1% Dex; for detached superficial apical cells (number), FIG. 4B: 1% CMC control 14±1.06. The method, then:
as §1, §2
The corneal epithelial damage was assessed as described previously (Pflugfelder et al., 2005, Am J Pathol 166, 61-71). In brief, the number of detaching apical cells was counted from a full microscope field-of vision from three separate tissue sections, by two independent masked observers, using a 20 objective. Three mice were evaluated in each treatment
Dry eye was created by housing the test animals in CEC for 14 days in accordance with procedures described in the “material and method” section. After confirmation of signs of DED by fluorescein stain (FIG. […] 3A; lower panel; day 21; and FIG. 3B).

Assay [4] has as its system desiccating stressed-mice. Briefly: Corneal fluorescein staining, therapeutic treatment of desiccation stress-induced dry eye. Particulars: 14 days in CEC, then eye drops for 7 days in normal environment (day 21); peptides 100 μM; 1% CMC control 3.6±0.26. The method, then:
as §1, §2
Animals were anesthetized by an intraperitoneal injection of a mixture of zoletil (6 mg/kg) and xylazine (3 mg/kg). Corneal epithelial injury was determined by staining with topical fluorescein (Fluor-I-Strip, Ayerst Laboratories, Philadelphia, Pa.). Corneal fluorescein staining was examined with a slit-lamp biomicroscope under cobalt blue light and photographed with a digital camera. Data is presented as mean±SD. […]

Assay [5] relates to desiccating stressed-mice. Briefly: PAS staining of goblet cells in conjunctival epithelium, therapeutic treatment. The following applies: 14 days in CEC, then eye drops for 7 days; for number of goblet cells in PAS-stained sections, observation in words, FIG. 5A: peptides 100 μM. The method, then: as §1, §2
After animals were euthanized, eyes were surgically excised, fixed in 10% formalin, paraffin embedded, and cut into 5-μm sections. […] Statistics
Dry eye was created by housing the test animals in CEC for 14 days in accordance with procedures described in the “material and method” section. After confirmation of signs of DED by fluorescein stain (FIG. 3A; upper panel; day 14), animals were then removed from the CEC and placed in the normal environment (day 15), then started treatment by administering eye drop containing 1% CMC, 1% dexamethasone (Dex), 7-mer (100 μM), or 7-mer (ΔS) (100 μM) for 7 days (FIG. 3A; lower panel; day 21; and FIG. 3B).

Turning to “LYRVRS [7-mer (ΔD), negative control peptide, 7-mer with N-terminal aspartate deleted]”, the “tear production (thread wet by the tear), FIG. 2” value (shortened to “tear production”) in assay [1] is recorded as “neither 7-mer (ΔD) nor 7-mer (ΔS) peptides possessed such effect”. Also, in assay [2], the “biological function towards DED (summary statement)” value was “do not possess any biological function towards DED” and the “corneal fluorescein staining (score), FIG. 1B” value was “no such effect”.

On to “DLYRVRS [7-mer, NH2-Asp-Leu-Tyr-Arg-Val-Arg-Ser-COOH]”, for which, in assay [3], the “detached superficial apical cells on H&E stained cornea sections, observation in words, FIG. 4A” value is reported as “no detached cells were found” and the “detached superficial apical cells (number), FIG. 4B” value was 2.1±0.37. In addition, the “corneal fluorescein staining score, FIG. 3B” value in assay [4] was 1.5±0.18. In assay [5] (7-mer 100 μM, 1% CMC control 7.5±0.96), the “goblet cells (number), FIG. 5B” value amounted to 12.7±1.28. Further, in assay [5], the “number of goblet cells in PAS-stained sections, observation in words, FIG. 5A” value is listed as “relatively the same as that of the normal healthy mice”. Further, the “tear production” value in assay [1] was 5.1±0.21 millimeters. Further, the “corneal fluorescein staining (score), FIG. 1B” value in assay [2] is reported as 1.3±0.21.

Consider “DLYRLRS [7-mer (V→L), NH2-Asp-Leu-Tyr-Arg-Leu-Arg-Ser-COOH]”, for which the “tear production” value in assay [1] turned out to be 5.0±0.16 millimeters.

With “DLYRVR [7-mer (ΔS), negative control peptide, 7-mer with C-terminal serine deleted]”, in assay [3], the “detached superficial apical cells on H&E stained cornea sections, observation in words, FIG. 4A” value is “Detached superficial apical cells were identified” and the “detached superficial apical cells (number), FIG. 4B” value is given as 13.8±1.03. The “corneal fluorescein staining score, FIG. 3B” value in assay [4] is reported as “no therapeutic effect”. Further, the “number of goblet cells in PAS-stained sections, observation in words, FIG. 5A” value in assay [5] is on record as “significant reduction in the number of goblet cells”. The “tear production” value in assay [1] was “neither 7-mer (ΔD) nor 7-mer (ΔS) peptides possessed such effect”. In assay [2], the “biological function towards DED (summary statement)” value is “do not possess any biological function towards DED” and the “corneal fluorescein staining (score), FIG. 1B” value was “no such effect”.

“DLYRQKS [7-mer (VR→QK), NH2-Asp-Leu-Tyr-Arg-Gln-Lys-Ser-COOH]”: the “tear production” value in assay [1] turned out to be 4.9±0.15 millimeters.
